Reference: patent US20090053807A1 (Novo Nordisk A/S, priority 1998, published 2009)
Residues, ends and D or L forms follow the SMILES beside them.

Test system: free fat cells
Experiment: Adipocyte / free fat cell (FFC) assay, 3H glucose incorporation into lipid
Settings: FFC assay potency; number of + grades agonist potency
Procedure: Incorporation of ^3H into the lipid phase was determined by partitioning of lipid phase into a scintillant mixture, which excludes water-soluble ^3H products.

CC(C)[C@H](NC(=O)[C@H](Cc1ccccc1)NC(=O)[C@H](Cc1c[nH]c2ccccc12)NC(=O)[C@H](CC(=O)O)NC(=O)[C@H](Cc1ccc(O)cc1)NC(=O)[C@H](Cc1ccccc1)NC(=O)[C@H](CC(N)=O)NC(=O)[C@H](CCC(=O)O)NC(=O)[C@H](Cc1c[nH]cn1)NC(=O)[C@@H](N)Cc1ccccc1)C(=O)N[C@@H](CCCNC(=N)N)C(=O)N[C@@H](CCC(N)=O)C(=O)N[C@H](C(=O)N[C@@H](CO)C(=O)N[C@@H](CCCCN)C(=O)N[C@@H](CCCCN)C(=O)N[C@@H](CNC(=O)CON)C(N)=O)C(C)C [Peptide S131]
FEC: +

CC[C@@H](C)[C@@H](NC(=O)[C@H](CCC(=O)O)NC(=O)[C@H](CC(=O)O)NC(=O)[C@H](Cc1ccccc1)NC(=O)[C@H](Cc1c[nH]c2ccccc12)NC(=O)[C@H](CC(=O)O)NC(=O)[C@H](Cc1ccc(O)cc1)NC(=O)[C@H](Cc1ccccc1)NC(=O)[C@@H]1C[C@@H](O)CN1C(=O)[C@H](CC(=O)O)NC(=O)[C@H](CCCNC(=N)N)NC(=O)[C@H](Cc1c[nH]c2ccccc12)NC(=O)[C@@H](N)CCC(=O)O)C(=O)N1C[C@H](O)C[C@H]1C(=O)N[C@H](CCC(=O)O)C(N)=O [Peptide S322] (HELM PEPTIDE1{E.W.R.D.[Hyp].F.Y.D.W.F.D.E.[dI].[Hyp].[dE].[am]}$$$$V2.0)
FEC: 0

CC(C)C[C@H](NC(=O)[C@H](CCC(=O)O)NC(=O)[C@H](C)NC(=O)[C@@H](NC(=O)[C@H](Cc1ccccc1)NC(=O)[C@H](Cc1c[nH]c2ccccc12)NC(=O)[C@H](CC(=O)O)NC(=O)[C@H](Cc1ccc(O)cc1)NC(=O)[C@H](Cc1ccccc1)NC(=O)[C@H](CC(N)=O)NC(=O)[C@H](C)NC(=O)[C@H](CC(N)=O)NC(=O)[C@H](CCCNC(=N)N)NC(=O)[C@H](CCC(N)=O)NC(=O)[C@H](CC(C)C)NC(=O)[C@H](Cc1c[nH]c2ccccc12)NC(=O)[C@H](CC(=O)O)NC(=O)[C@@H](NC(=O)[C@H](CCCNC(=N)N)NC(=O)CNC(=O)[C@@H](N)CNC(=O)CON)C(C)C)C(C)C)C(=O)NCC(N)=O [Peptide S245]
FEC: +

CC[C@@H](C)[C@@H](NC(=O)[C@H](CCC(=O)O)NC(=O)[C@H](CC(=O)O)NC(=O)[C@H](Cc1ccccc1)NC(=O)[C@H](Cc1c[nH]c2ccccc12)NC(=O)[C@H](CC(=O)O)NC(=O)[C@H](Cc1ccc(O)cc1)NC(=O)[C@H](Cc1ccccc1)NC(=O)[C@@H]1C[C@@H](O)CN1C(=O)[C@H](CC(=O)O)NC(=O)[C@H](CCCNC(=N)N)NC(=O)[C@@H](CCC(=O)O)NC(=O)[C@@H](N)Cc1ccc(O)cc1)C(=O)NCC(=O)NCC(N)=O [Peptide S321]
FEC: 0

CC[C@H](C)[C@@H]1NC(=O)[C@H](CCC(=O)O)NC(=O)[C@@H](NC(=O)[C@H](Cc2c[nH]c3ccccc23)NC(=O)[C@@H](NC(=O)[C@H](Cc2c[nH]c3ccccc23)NC(=O)[C@H](C)NC(=O)[C@H](CCCNC(=N)N)NC(=O)[C@H](CCC(=O)O)NC(=O)[C@H](CCC(N)=O)NC(=O)[C@H](CCC(=O)O)NC(=O)[C@H](CC(C)C)NC(=O)[C@@H](N)Cc2c[nH]c3ccccc23)[C@@H](C)CC)CSSC[C@@H](C(=O)N[C@@H](CCCNC(=N)N)C(=O)N[C@@H](C)C(=O)O)NC(=O)CNC(=O)[C@H](CO)NC(=O)CNC(=O)[C@H](CCC(N)=O)NC1=O [Peptide S263] (HELM PEPTIDE1{W.L.E.Q.E.R.A.W.I.W.C.E.I.Q.G.S.G.C.R.A}$PEPTIDE1,PEPTIDE1,11:R3-18:R3$$$V2.0; N-terminus and C-terminus assumed; bridges inferred)
FEC: 0

CC(C)C[C@@H]1NC(=O)[C@H](CO)NC(=O)[C@H](C)NC(=O)CNC(=O)CNC(=O)[C@H](Cc2ccccc2)NC(=O)[C@H](CC(C)C)NC(=O)[C@H](CCC(=O)O)NC(=O)[C@H](CCC(N)=O)NC(=O)[C@H](CC(C)C)NC(=O)[C@H](Cc2ccccc2)NC(=O)[C@@H](NC(=O)[C@H](CC(C)C)NC(=O)[C@@H]2CCCN2)CSSC[C@@H](C(=O)N[C@@H](CO)C(=O)NCC(=O)O)NC(=O)[C@H](Cc2ccc(O)cc2)NC(=O)CNC(=O)CNC1=O [Peptide S262] (HELM PEPTIDE1{P.L.C.F.L.Q.E.L.F.G.G.A.S.L.G.G.Y.C.S.G}$PEPTIDE1,PEPTIDE1,3:R3-18:R3$$$V2.0; N-terminus and C-terminus assumed; bridges inferred)
FEC: 0
